Patent US20210106574A1, “Methods of Treating Cancer” (Tesaro, Inc., priority 2017, published 2021)
Counter-ions that a name gives are not always drawn. Like-named read-outs stand apart in the source and are kept apart here.

What was measured:
[1] = tested on: cancer cell lines silenced for or carrying mutations of BRCA-1 or BRCA-2; Ewing's sarcoma, ALL, NSCLC, SCLC and ATM-inactivated tumor cell lines; conditions: cell lines silenced for BRCA-1 or BRCA-2 or carrying BRCA-1 or BRCA-2 mutations compared to wild type counterparts; cited from earlier work
[2] = tested on: HRR11 KO isogenic Dld-1 cell lines; conditions: bi-allelic mutations in BRCA1, BRCA2, PALB2 and ATM (FIG. 5)
Experimental: CRISPR/Cas9 technology was used to knock-out either the single or both alleles of 11 clinically-relevant HR genes in two different genetic backgrounds, using Dld-1 and HeLa cell lines. […] Compounds were added 24 h after cell seeding, and then every 3- to 4-days (2-times a week) during the incubation period (for 13-days incubation period).

[3] = tested on: MDA-MB-436, CAPAN-1, GRANTA-519, OVCAR3, HT29 and DLD-1, patient derived Ewing's sarcoma, and TNBC xenograft models; conditions: xenograft models in mice; cited from earlier work
[4] = tested on: PARP activity; conditions: stimulated by hydrogen peroxide, various cell lines, cited from earlier work
[5] = tested on: HRR mutant PDX models
Experimental: The relative contribution of the loss of BRCA and non-BRCA HRR genes to PARP synthetic lethality in additional indications other than ovarian and breast was also evaluated. To this end, CRISPR/Cas9 technology was utilized to knock-out either the single or both alleles of 11 clinically-relevant HR genes in two different genetic backgrounds.

[6] = tested on: platinum-sensitive recurrent ovarian cancer patients
Experimental: Two cohorts were treated: the germline BRCA mutant positive cohort (gBRCAmut) and the non-germline BRCA cohort (non-gBRCAmut). […] Patients in this cohort were germline BRCA mutation carriers as assessed by the FDA-approved Integrated BRACAnalysis test. Patients in the non-gBRCAmut were negative in the FDA-approved Integrated BRACAnalysis test.
This objective is independently evaluated in a cohort of patients with germline BRCA mutation (gBRCAmut) and in a cohort of patients who have high grade serous or high grade predominantly serous histology but without such gBRCA mutations (non-gBRCAmut). […] Accordingly, HRD is used as a tumor biomarker classifier to be evaluated.
Study treatment was dispensed to patients on Day 1 and every cycle (28 days) thereafter until the patient discontinued study treatment. Study treatment was administered orally once daily continuously. Three capsules of 100 mg strength were taken at each dose administration. Clinic visits occurred in each cycle (every 4 weeks 3 days). Response evaluation criteria in solid tumors (RECIST) tumor assessment via computed tomography (CT) or magnetic resonance imaging (MRI) scan of abdomen/pelvis and clinically indicated areas was required at the end of every 2-cycles (8-weeks with a window of 7 days from date of visit) through Cycle 14, then at the end of every 3-cycles (12-weeks with a window of 7 days from date of visit) until progression.
Patients were assessed by the prolongation of progression-free survival (PFS). […] Response Evaluation Criteria in Solid Tumors (RECIST) was used for tumor assessment via a computed tomography (CT) or magnetic resonance imaging (MRI) scan of abdomen/pelvis and clinically indicated areas, which was required at the end of every 2-cycles (8-weeks) through cycle 14 (56-weeks), and then at the end of every 3-cycles (12-weeks) until progression.
Following completion of the NOVA study, formalin-fixed, paraffin-embedded (FFPE) archival tumor samples from NOVA patients were retrospectively analyzed using a pre-specified gene panel. […]

[7] = tested on: NSCLC PDX models
[8] = tested on: ovarian cancer patients; conditions: cited from earlier work
[9] = tested on: patients with advanced BRCA-mutant ovarian cancer; conditions: cited from earlier work
[10] = ATM bi-allelic mutant NSCLC PDX models
[11] = 106 patients, 600 mg orally twice daily

Cc1ccc(S(=O)(=O)O)cc1.NC(=O)c1cccc2cn(-c3ccc([C@@H]4CCCNC4)cc3)nc12 [Niraparib, (3S)-3-[4-{7-(aminocarbonyl)-2H-indazol-2-yl}phenyl]piperidine]
anti-proliferative activity [1]: selective anti-proliferative activity
niraparib sensitivity based on total growth inhibition (TGI) [2]: strongest niraparib sensitivity
antitumor activity [3]: strong antitumor activity
IC50 ([4]; read-out: IC50, PARP activity in cells): ~4 nM
IC90 ([4]; read-out: inhibitory concentration at 90% of control (IC90), PARP activity in cells): ~50 nM
PDX models with strong sensitivity, TGI>70% [5, 10]: 33%
PDX models with moderate sensitivity, TGI≥50% ([5]; ATM bi-allelic mutant PDX models): 14%
PDX models with TGI≥50% ([5]; ATM monoallelic mutant PDX models): 0/6
models sensitive with ≥50% TGI ([5]; BAP bi-allelic mutations, across 5-tumor types): 36%
PDX models with moderate sensitivity, ≥50% TGI ([5]; BRCA1/2 bi-allelic mutant PDX models): 43%
PDX models with moderate sensitivity, TGI≥50% ([5]; BRCA2 bi-allelic mutant PDX models): 43%
PDX models with >100% TGI ([5]; OvCa PDX models): 80%
PDX models with strong sensitivity ([5]; PALB2 monoallelic mutant PDX models (1/6)): 17%
niraparib sensitivity based on total growth inhibition (TGI) ([5]; bi-allelic mutations in BRCA1, BRCA2, PALB2 and ATM (FIG. 4)): strongest niraparib sensitivity
TGI ([5]; sensitive PALB2 monoallelic mutant PDX model): 93%
Median Progression Free Survival (PFS) ([6]; Non-tBRCA1/2 HRR mutant): 15.7
Median Progression Free Survival (PFS) ([6]; tBRCA1/2 mutant): 15.4
effectiveness of niraparib treatment ([6]; tBRCA wildtype patients with at least one mutation in 31 DDR gene panel compared to no mutation): similarly effective
models sensitive to niraparib [7, 10]: 2 out of 8
models sensitive to niraparib ([7]; HRR WT NSCLC PDX models (3 out of 40)): 7.5%

O=C(c1cc(Cc2n[nH]c(=O)c3ccccc23)ccc1F)N1CCN(C(=O)C2CC2)CC1 [olaparib, 4-[(3-{[4-(cyclopropylcarbonyl)piperazin-1-yl]carbonyl}-4-fluorophenyl)methyl]phthalazin-1(2H)-one]
responses ([8]; in 17 patients with BRCA1 or BRCA2 mutations): 7 responses
responses ([8]; in the 46 who did not have these mutations): 11 responses

CNCc1ccc(-c2[nH]c3cc(F)cc4c3c2CCNC4=O)cc1 [rucaparib, 8-fluoro-2-{4-[(methylamino)methyl]phenyl}-1,3,4,5-tetrahydro-6H-azepino[5,4,3-cd]indol-6-one ((1S,4R)-7,7-dimethyl-2-oxobicyclo[2.2.1]hept-1-yl)methanesulfonic acid salt]
Response assessment by independent radiology review [9, 11]: 42%
median DOR [9, 11]: 6.7 months
Investigator-assessed ORR ([9]; platinum-refractory patients): 0%
Investigator-assessed ORR ([9]; platinum-resistant patients): 25%
Investigator-assessed ORR ([9]; platinum-sensitive patients): 66%
